Measurements as given in US20250339567A1, “COMPOUNDS WITH IMPROVED PHARMACOKINETICS FOR IMAGING AND THERAPY OF CANCER” (priority 2019, published 2025).
Starred links: 1 amine or outer side, 2 acyl side, 3 side chain; linkers in the order of their positions; H or OH if unused. Non-standard residues stand in square brackets, D forms with d. Residues, ends and D or L forms follow the SMILES beside them. *: point of attachment. DOTA = O=C(O)CN1CCN(CC(=O)O)CCN(CC(=O)*)CCN(CC(=O)O)CC1; αMeW = C[C@](N)(Cc1c[nH]c2ccccc12)C(=O)O; Sta = CC(C)C[C@H](N)[C@@H](O)CC(=O)O; Bta = N[C@@H](Cc1csc2ccccc12)C(=O)O; Gly(cPent) = N[C@H](C(=O)O)C1CCCC1; X1 = O=C(CN1CCC(N[*:1])CC1)[*:2]; Chg = N[C@H](C(=O)O)C1CCCCC1; dOrn = NCCC[C@@H](N)C(=O)O; hSer = N[C@@H](CCO)C(=O)O; Nle = CCCC[C@H](N)C(=O)O; dDap = NC[C@@H](N)C(=O)O; βAla = NCCC(=O)O

Molecular target: T1, GRPR (Homo sapiens, UniProt P30550)
T1 construct: endogenous in cells; host or cells: PC-3 cells
T1 sequence (P30550 whole entry): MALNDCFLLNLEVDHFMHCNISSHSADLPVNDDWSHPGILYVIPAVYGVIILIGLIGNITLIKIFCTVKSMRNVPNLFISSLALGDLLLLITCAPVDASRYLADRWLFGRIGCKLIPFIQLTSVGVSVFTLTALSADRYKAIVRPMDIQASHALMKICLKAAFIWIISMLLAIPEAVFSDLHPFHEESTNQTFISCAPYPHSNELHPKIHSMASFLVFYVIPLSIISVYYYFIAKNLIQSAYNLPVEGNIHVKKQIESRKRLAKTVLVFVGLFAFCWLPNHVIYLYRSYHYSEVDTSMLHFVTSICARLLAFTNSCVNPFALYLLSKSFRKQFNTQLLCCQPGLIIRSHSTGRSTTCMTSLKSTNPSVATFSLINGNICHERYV
Assay: Determination of GRPR affinity (IC50), competition with [D-3-[125I]I-Tyr6]MJ9 on PC-3 cells
Type: binding
Conditions: IC50 ± SD (n = 3), Table 3, [D-3-[125I]I-Tyr6]MJ9 (c = 0.2 nM), 2 h, r.t., HBSS + 1% BSA
Method: The reference ligand for IC50 studies ([D-3-[^125I]I-Tyr^6]MJ9) is prepared according to a previously published procedure. Briefly, 0.2 mg of [D-Tyr^6]MJ9 are dissolved in 20 μL Tracepur water and 280 μL TRIS buffer (25 mm TRIS HCl, 0.4 M NaCl, pH=7.9). After addition of the solution to a vial containing 150 μg Iodo-Gen® (1,3,4,6-Tetrachloro-3α,6α-diphenylglycouril, surface-bound), 5.0 μL (16 MBq) [^125I]Nal(74 TBq/mmol, 3.1 GBq/mL, 40 mM NaOH, Hartmann Analytic, Braunschweig, Germany) are added.
The GRPR-positive PC-3 cells are cultured in Dublecco modified Eagle medium/Nutrition Mixture F-12 with Glutamax-I (1:1) (Invitrigon), supplemented with 10% fetal calf serum and maintained at 37° C. in a humidified 5% CO2 atmosphere.
After removal of the culture medium, the cells are washed once with 500 μL of HBSS (Hank's balanced salt solution, Biochrom, Berlin, Germany, with addition of 1% bovine serum albumin (BSA)) and left in 200 μL HBSS (1% BSA) for 9 min at room temperature for equilibration. Next, 25 μL per well of solutions, containing either HBSS (1% BSA) as control or the respective ligand in increasing concentration (10^−10 M-10^−4 M in HBSS), are added with subsequent addition of 25 μL of [D-3-[^125I]I-Tyr^6]MJ9 (2.0 nM) in HBSS (1% BSA).
All experiments are performed in triplicate for each concentration. After 2 h incubation at room temperature, the experiment is terminated by removal of the medium and consecutive rinsing with 300 μL of HBSS. The media of both steps are combined in one fraction and represent the amount of free radiolabeled reference. Afterwards, the cells are lysed with 300 μL of 1 M NaOH for at least 15 min and united with the 300 μL NaOH of the following washing step. Quantification of bound and free radiolabeled reference is accomplished in a γ-counter.
IC50 determination for each ligand was repeated twice.

Structure (SMILES) | IC50 [nM]
CC(C)C[C@H](NC(=O)C[C@H](O)[C@H](CC(C)C)NC(=O)[C@H](Cc1c[nH]cn1)NC(=O)CNC(=O)[C@@H](NC(=O)[C@H](C)NC(=O)[C@H](Cc1csc2ccccc12)NC(=O)[C@H](CCC(N)=O)NC(=O)[C@@H](Cc1ccccc1)NC(=O)CN1CCC(NC(=O)CN2CCN(CC(=O)O)CCN(CC(=O)O)CCN(CC(=O)O)CC2)CC1)C(C)C)C(N)=O [[^natGa]DOTA-[Bta^8]MJ9, metal not drawn] ({DOTA}-[X1][dF]Q[Bta]AVGH[Sta]L-NH2) | 3.06 ± 0.15

Same assay, conditions: read-out: IC50 ± SD (n = 3), Table 3, [D-3-[125I]I-Tyr6]MJ9 (c = 0.2 nM), 2 h, r.t., HBSS + 1% BSA

Structure (SMILES) | IC50 [nM]
CC(C)C[C@H](NC(=O)C[C@H](O)[C@H](CC(C)C)NC(=O)[C@H](Cc1c[nH]cn1)NC(=O)CNC(=O)[C@@H](NC(=O)[C@H](C)NC(=O)[C@H](Cc1c[nH]c2ccccc12)NC(=O)[C@H](CCO)NC(=O)[C@@H](Cc1ccccc1)NC(=O)CN1CCC(NC(=O)CN2CCN(CC(=O)O)CCN(CC(=O)O)CCN(CC(=O)O)CC2)CC1)C(C)C)C(N)=O [[^natGa]DOTA-[Hse^7]MJ9, metal not drawn] | 12.2 ± 0.2

Tested on: not listed separately
Assay: Plasma studies: metabolic stability in vitro in human plasma (radio RP-HPLC)
Type: in vitro ADME
Conditions: not given
Method: Metabolic stability in vitro was determined applying a procedure published by Linder et al. that was slightly modified. Immediately after labeling, human (200 μL) or murine (100 μL) plasma was added and the mixture was incubated at 37° C. for 72±2 h (or 6±0.5 h). Proteins were precipitated by treatment with ice-cold EtOH (150 μL [human], 100 μL [murine]) and ice-cold MeCN (450 μL [human], 300 μL [murine]), followed by centrifugation for 20 min at 13000 rpm. The supernatants were decanted and further analyzed using radio RP-HPLC. […]

Structure (SMILES) | Amount of intact tracer after incubation in human plasma for 72 ± 2 h (n = 2)
CC(C)C[C@H](NC(=O)C[C@H](O)[C@H](CC(C)C)NC(=O)[C@H](Cc1c[nH]cn1)NC(=O)CNC(=O)[C@@H](NC(=O)[C@H](C)NC(=O)[C@H](Cc1c[nH]c2ccccc12)NC(=O)[C@H](CCO)NC(=O)[C@@H](CCCNC(=N)N)NC(=O)CN1CCC(NC(=O)CN2CCN(CC(=O)O)CCN(CC(=O)O)CCN(CC(=O)O)CC2)CC1)C(C)C)C(N)=O [DOTA-[arg^6, Hse^7]MJ9] ({DOTA}-[X1][dR][hSer]WAVGH[Sta]L-NH2) | 18.2 ± 1.9
CC(C)C[C@H](NC(=O)C[C@H](O)[C@H](CC(C)C)NC(=O)[C@H](Cc1c[nH]cn1)NC(=O)CNC(=O)[C@@H](NC(=O)[C@H](C)NC(=O)[C@](C)(Cc1c[nH]c2ccccc12)NC(=O)[C@H](CCC(N)=O)NC(=O)[C@@H](CCCNC(=N)N)NC(=O)CN1CCC(NC(=O)CN2CCN(CC(=O)O)CCN(CC(=O)O)CCN(CC(=O)O)CC2)CC1)C(C)C)C(N)=O [DOTA-[arg^6, α-Me-Trp^8]MJ9] ({DOTA}-[X1][dR]Q[αMeW]AVGH[Sta]L-NH2) | 20.1 ± 0.7
CC(C)C[C@H](NC(=O)C[C@H](O)[C@H](CC(C)C)NC(=O)[C@H](Cc1c[nH]cn1)NC(=O)CNC(=O)[C@@H](NC(=O)[C@H](C)NC(=O)[C@H](Cc1c[nH]c2ccccc12)NC(=O)[C@H](CCC(N)=O)NC(=O)[C@@H](CCCNC(=N)N)NC(=O)CN1CCC(NC(=O)CN2CCN(CC(=O)O)CCN(CC(=O)O)CCN(CC(=O)O)CC2)CC1)C(C)C)C(N)=O [DOTA-[arg^6]MJ9] ({DOTA}-[X1][dR]QWAVGH[Sta]L-NH2) | 13.5 ± 3.4
CC(C)C[C@H](NC(=O)C[C@H](O)[C@H](CC(C)C)NC(=O)[C@H](Cc1c[nH]cn1)NC(=O)CNC(=O)[C@@H](NC(=O)[C@H](C)NC(=O)[C@](C)(Cc1c[nH]c2ccccc12)NC(=O)[C@H](CCC(N)=O)NC(=O)[C@@H](Cc1ccccc1)NC(=O)CN1CCC(NC(=O)CN2CCN(CC(=O)O)CCN(CC(=O)O)CCN(CC(=O)O)CC2)CC1)C1CCCCC1)C(N)=O [DOTA-[α-Me-Trp^8, Chg^10]MJ9] ({DOTA}-[X1][dF]Q[αMeW]A[Chg]GH[Sta]L-NH2) | 22.6 ± 1.9
CC(C)C[C@H](NC(=O)C[C@H](O)[C@H](CC(C)C)NC(=O)[C@H](Cc1c[nH]cn1)NC(=O)CNC(=O)[C@@H](NC(=O)[C@H](C)NC(=O)[C@](C)(Cc1c[nH]c2ccccc12)NC(=O)[C@H](CCC(N)=O)NC(=O)[C@@H](Cc1ccccc1)NC(=O)CN1CCC(NC(=O)CN2CCN(CC(=O)O)CCN(CC(=O)O)CCN(CC(=O)O)CC2)CC1)C1CCCC1)C(N)=O [DOTA-[α-Me-Trp^8, Cpg^10]MJ9] ({DOTA}-[X1][dF]Q[αMeW]A[Gly(cPent)]GH[Sta]L-NH2) | 25.5 ± 1.9
CC(C)C[C@H](NC(=O)C[C@H](O)[C@H](CC(C)C)NC(=O)[C@H](Cc1c[nH]cn1)NC(=O)CN(C)C(=O)[C@@H](NC(=O)[C@H](C)NC(=O)[C@](C)(Cc1c[nH]c2ccccc12)NC(=O)[C@H](CCC(N)=O)NC(=O)[C@@H](Cc1ccccc1)NC(=O)CN1CCC(NC(=O)CN2CCN(CC(=O)O)CCN(CC(=O)O)CCN(CC(=O)O)CC2)CC1)C(C)C)C(N)=O [DOTA-[α-Me-Trp^8, N—Me-Gly^11]MJ9] | 14.3 ± 1.2
CC(C)C[C@H](NC(=O)C[C@H](O)[C@H](CC(C)C)NC(=O)[C@H](Cc1c[nH]cn1)NC(=O)CNC(=O)[C@@H](NC(=O)[C@H](CO)NC(=O)[C@](C)(Cc1c[nH]c2ccccc12)NC(=O)[C@H](CCC(N)=O)NC(=O)[C@@H](Cc1ccccc1)NC(=O)CN1CCC(NC(=O)CN2CCN(CC(=O)O)CCN(CC(=O)O)CCN(CC(=O)O)CC2)CC1)C(C)C)C(N)=O [DOTA-[α-Me-Trp^8, Ser^9]MJ9] ({DOTA}-[X1][dF]Q[αMeW]SVGH[Sta]L-NH2) | 22.1 ± 2.2
CCCC[C@H](NC(=O)[C@H](Cc1ccccc1)NC(=O)[C@H](Cc1c[nH]cn1)NC(=O)CCNC(=O)[C@@H](NC(=O)[C@H](C)NC(=O)[C@](C)(Cc1c[nH]c2ccccc12)NC(=O)[C@H](CCC(N)=O)NC(=O)[C@@H](Cc1ccccc1)NC(=O)CN1CCN(CC(=O)O)CCN(CC(=O)O)CCN(CC(=O)O)CC1)C(C)C)C(N)=O [DOTA-[α-Me-Trp^8]UL] ({DOTA}-[dF]Q[αMeW]AV[βAla]HF[Nle]-NH2) | 10.2 ± 2.7
CC(C)C[C@H](NC(=O)C[C@H](O)[C@H](CC(C)C)NC(=O)[C@H](Cc1c[nH]cn1)NC(=O)CNC(=O)[C@@H](NC(=O)[C@H](C)NC(=O)[C@H](Cc1c[nH]c2ccccc12)NC(=O)[C@H](CCC(N)=O)NC(=O)[C@@H](Cc1ccccc1)NC(=O)CN1CCC(NC(=O)[C@@H](CN)NC(=O)[C@@H](CCCN)NC(=O)CN2CCN(CC(=O)O)CCN(CC(=O)O)CCN(CC(=O)O)CC2)CC1)C(C)C)C(N)=O [DOTA-orn^3-dap^4-MJ9] ({DOTA}-[dOrn][dDap][X1][dF]QWAVGH[Sta]L-NH2) | 5.9 ± 0.5
CC(C)C[C@H](NC(=O)C[C@H](O)[C@H](CC(C)C)NC(=O)[C@H](Cc1c[nH]cn1)NC(=O)CNC(=O)[C@@H](NC(=O)[C@H](C)NC(=O)[C@H](Cc1csc2ccccc12)NC(=O)[C@H](CCC(N)=O)NC(=O)[C@@H](Cc1ccccc1)NC(=O)CN1CCC(NC(=O)[C@@H](CN)NC(=O)[C@@H](CCCN)NC(=O)CN2CCN(CC(=O)O)CCN(CC(=O)O)CCN(CC(=O)O)CC2)CC1)C(C)C)C(N)=O [DOTA-orn^3-dap^4-[Bta^8]MJ9] ({DOTA}-[dOrn][dDap][X1][dF]Q[Bta]AVGH[Sta]L-NH2) | 2.7 ± 0.3
CC(C)C[C@H](NC(=O)C[C@H](O)[C@H](CC(C)C)NC(=O)[C@H](Cc1c[nH]cn1)NC(=O)CNC(=O)[C@@H](NC(=O)[C@H](C)NC(=O)[C@H](Cc1c[nH]c2ccccc12)NC(=O)[C@H](CCO)NC(=O)[C@@H](Cc1ccccc1)NC(=O)CN1CCC(NC(=O)[C@@H](CN)NC(=O)[C@@H](CCCN)NC(=O)CN2CCN(CC(=O)O)CCN(CC(=O)O)CCN(CC(=O)O)CC2)CC1)C(C)C)C(N)=O [DOTA-orn^3-dap^4-[Hse^7]MJ9] ({DOTA}-[dOrn][dDap][X1][dF][hSer]WAVGH[Sta]L-NH2) | 7.9 ± 2.5
CC(C)C[C@H](NC(=O)C[C@H](O)[C@H](CC(C)C)NC(=O)[C@H](Cc1c[nH]cn1)NC(=O)CNC(=O)[C@@H](NC(=O)[C@H](C)NC(=O)[C@](C)(Cc1c[nH]c2ccccc12)NC(=O)[C@H](CCC(N)=O)NC(=O)[C@@H](Cc1ccccc1)NC(=O)CN1CCC(NC(=O)[C@@H](CN)NC(=O)[C@@H](CCCN)NC(=O)CN2CCN(CC(=O)O)CCN(CC(=O)O)CCN(CC(=O)O)CC2)CC1)C(C)C)C(N)=O [DOTA-orn^3-dap^4-[α-Me-Trp^8]MJ9] ({DOTA}-[dOrn][dDap][X1][dF]Q[αMeW]AVGH[Sta]L-NH2) | 16.6 ± 0.8
CCCC[C@H](NC(=O)[C@H](Cc1ccccc1)NC(=O)[C@H](Cc1c[nH]cn1)NC(=O)CCNC(=O)[C@@H](NC(=O)[C@H](C)NC(=O)[C@H](Cc1c[nH]c2ccccc12)NC(=O)[C@H](CCC(N)=O)NC(=O)[C@@H](Cc1ccccc1)NC(=O)CN1CCN(CC(=O)O)CCN(CC(=O)O)CCN(CC(=O)O)CC1)C(C)C)C(N)=O [UL, reference compound] ({DOTA}-[dF]QWAV[βAla]HF[Nle]-NH2) | 4.3 ± 0.2
